Like-named read-outs stand apart in the source and are kept apart here. Marks after values point to notes of the source that are not given here.
Tests used:
Bcl-w = target: T1, Bcl-w (Homo sapiens, UniProt Q92843); assay: TR FRET competitive binding affinity, Bcl-w; settings: read-out: Target Affinity TR FRET, Bcl-w
T1 sequence (Q92843 1-193): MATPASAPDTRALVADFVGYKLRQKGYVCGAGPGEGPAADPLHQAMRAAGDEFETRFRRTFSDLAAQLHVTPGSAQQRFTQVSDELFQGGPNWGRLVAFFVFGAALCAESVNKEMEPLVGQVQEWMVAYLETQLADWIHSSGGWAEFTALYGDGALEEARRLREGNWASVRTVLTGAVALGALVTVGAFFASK
Method: (§1) A comparison of the binding affinity for each of the compounds was performed to determine target affinity, as measured by Time-Resolved Fluorescence Resonance Energy Transfer (TR FRET).

FL5.12-Bcl-2 cells = assay: Cellular efficacy in FL5.12 cells dependent on Bcl-2; format: cell-based, murine; settings: Mus musculus, 3% FBS
FL5.12-Bcl-XL cells = assay: Cellular efficacy in FL5.12 cells dependent on Bcl-XL; format: cell-based, murine; settings: Mus musculus, 3% FBS
RS4;11 cells = assay: Cellular efficacy in Bcl-2 dependent tumor cell line RS4;11; format: cell-based, human; settings: Homo sapiens, RS4-11; 10% HS
H146 cells = assay: Cellular efficacy in Bcl-XL dependent tumor cell line H146; format: cell-based; settings: Homo sapiens, NCI-H146; 10% HS
[1] = tested on: peripheral blood immune cells and platelets; assay: Peripheral blood lymphocytes and platelets in (NZB×NZW)F1 mice, Cell Dyn hematology analyzer; format: in vivo
Bcl-2 = Bcl-2 (Homo sapiens, UniProt P10415); assay: TR FRET competitive binding affinity, Bcl-2; settings: read-out: Target Affinity TR FRET, Bcl-2
Chain of Bcl-2 (P10415 whole entry): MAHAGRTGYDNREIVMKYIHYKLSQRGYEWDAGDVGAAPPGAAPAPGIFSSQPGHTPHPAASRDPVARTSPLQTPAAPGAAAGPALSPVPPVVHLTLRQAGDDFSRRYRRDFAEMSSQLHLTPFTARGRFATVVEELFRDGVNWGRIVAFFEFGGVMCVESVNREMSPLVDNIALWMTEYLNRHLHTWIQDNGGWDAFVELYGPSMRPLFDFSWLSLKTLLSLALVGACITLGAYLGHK
Method: as §1

Bcl-XL = Bcl-XL (Homo sapiens, UniProt Q07817); assay: TR FRET competitive binding affinity, Bcl-XL; settings: read-out: Target Affinity TR FRET, Bcl-XL
Chain of Bcl-XL (Q07817 whole entry): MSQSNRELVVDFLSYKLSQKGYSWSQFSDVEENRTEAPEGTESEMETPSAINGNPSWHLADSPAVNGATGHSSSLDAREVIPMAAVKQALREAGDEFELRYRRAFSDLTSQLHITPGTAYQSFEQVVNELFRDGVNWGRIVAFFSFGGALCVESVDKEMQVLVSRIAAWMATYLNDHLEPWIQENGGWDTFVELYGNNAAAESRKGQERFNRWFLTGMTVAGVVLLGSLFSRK
Method: as §1

Mcl-1 = Mcl-1 (Homo sapiens, UniProt Q07820); assay: TR FRET competitive binding affinity, Mcl-1; settings: read-out: Target Affinity TR FRET, Mcl-1
Chain of Mcl-1 (Q07820 whole entry): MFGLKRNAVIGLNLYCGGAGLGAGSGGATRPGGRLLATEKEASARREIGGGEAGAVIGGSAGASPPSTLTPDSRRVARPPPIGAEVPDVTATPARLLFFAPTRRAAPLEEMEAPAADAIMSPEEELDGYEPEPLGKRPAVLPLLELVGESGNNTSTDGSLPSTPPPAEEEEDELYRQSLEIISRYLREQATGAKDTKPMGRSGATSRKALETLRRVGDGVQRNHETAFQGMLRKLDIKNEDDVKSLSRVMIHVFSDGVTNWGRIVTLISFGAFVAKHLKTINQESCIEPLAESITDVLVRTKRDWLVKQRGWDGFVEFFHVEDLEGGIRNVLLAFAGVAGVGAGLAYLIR
Method: as §1

[2] = tested on: peripheral blood immune cells; assay: Peripheral blood lymphocytes in C57BL/6 mice, Cell Dyn hematology analyzer; format: in vivo; settings: for inhibition in vivo at 100 mg/kg: Mus musculus, Lymphocyte
Method: The effect of the Bcl-2 selective/Bcl-XL sparing compounds on peripheral blood immune cells was also evaluated in C57BL/6 mice. Mice were treated four days with individual compounds (100 mg/kg, orally every day) and cell numbers were measured with a Cell Dyn hematology analyzer.

[3] = tested on: spontaneous (NZB×NZW)F1 murine model of lupus; assay: Spontaneous (NZB×NZW)F1 murine model of lupus: proteinuria, survival, lymphopenia; format: in vivo, (NZB×NZW)F1 mice
Source text: (See Liu, K. and C. Mohan, What do mouse models teach us about human SLE? Clin Immunol, 2006. 119(2): p. 123-30) This model has been well-characterized with respect to the patho-physiological changes analogous to those of human SLE. […] Renal histopathological changes include severe glomerulonephritis, mesangial and peripheral proliferative changes, capillary membrane thickening, tubular atrophy, and infiltration of lymphocytes and monocytes/macrophages as in the majority of human SLE patients. These changes result in disruption of kidney function as evidenced by severe proteinuria (PU) greater than 300 mg/dL as measured by albumin sticks, followed by mortality as measured by survival. […] (See Gelfand, M. C. and A. D. Steinberg, Therapeutic studies in NZB-W mice. II. Relative efficacy of azathioprine, cyclophosphamide and methylprednisolone. Arthritis Rheum, 1972. 15(3): p. 247-52; and Ramos, M. A., et al., Modulation of autoantibody production by mycophenolate mofetil: effects on the development of SLE in (NZB×NZW)F1 mice. Nephrol Dial Transplant, 2003. 18(5): p. 878-83)
(NZB×NZW)F1 females were purchased from The Jackson Laboratory (Bar Harbor, Me., USA) and maintained in a conventional animal housing facility throughout the experiment. […] Proteinuria (PU) and survival were monitored weekly, followed by biweekly measurement of lymphocyte and platelet counts, and anti-ds DNA production. PK parameters were also measured throughout the study. Impact on IgG deposition and renal pathology were assessed at the conclusion of the study. Severe PU was defined by two consecutive weekly measurements of PU 300 mg/dl using Albustix test strips (VWR). When mice became moribund, they were sacrificed according to Institutional Animal Care and Use Committee protocols. PU and survival data were presented as Kaplan-Meyer survival curves using Graphpad Prism software and group differences were considered significant at the level of p<0.05. Histologic scores were analyzed using ANOVA analysis. Anti-ds DNA were analyzed using one-way ANOVA analysis and Tukey post-test.

[4] = (NZB×NZW)F1 mice, four days, orally every day
[5] = 30 and 100 mg/kg intraperitoneal every day, four days
[6] = 24 h, 1 oral dose of 100 mg/kg, read-out: Day 1 % Reduction vs. Vehicle
[7] = 96 h, 4 oral doses of 100 mg/kg, read-out: Day 4 % Reduction vs. Vehicle

Compound | Ki (Bcl-w) [nM] | EC50 (FL5.12-Bcl-2 cells) [nM] | EC50 (FL5.12-Bcl-XL cells) [nM] | EC50 (RS4;11 cells) [nM] | EC50 (H146 cells) [nM] | Ki (Bcl-2) [nM] | Ki (Bcl-XL) [nM] | Ki (Mcl-1) [nM] | Day 1 Lymphocytes ([2]; 1 oral dose of 100 mg/kg) | Day 4 lymphocytes ([2]; 4 oral doses of 100 mg/kg) | inhibition in vivo at 100 mg/kg [2, 6] [%] | inhibition in vivo at 100 mg/kg [2, 7] [%] | also measured
CC1(C)CCC(c2ccc(Cl)cc2)=C(CN2CCN(c3ccc(C(=O)NS(=O)(=O)c4ccc(N[C@H](CCN5CCOCC5)CSc5ccccc5)c(S(=O)(=O)C(F)(F)F)c4)cc3)CC2)C1 [Compound 2, N-(4-(4-((2-(4-chlorophenyl)-5,5-dimethyl-1-cyclohex-1-en-1-yl)methyl)piperazin-1-yl)benzoyl)-4-(((1R)-3-(morpholin-4-yl)-1-((phenylsulfanyl)methyl)propyl)amino)-3-((trifluoromethyl)sulfonyl)benzenesulfonamide, reference compound] | 7 | 20 | 13 | 110 | 75 | – | – | – | – | – | – | – | lymphocytes in peripheral blood [1, 4]: decrease in lymphocytes; platelet counts [1, 4]: significant decrease in platelet counts
CC1(C)CCC(CN2CCN(c3ccc(C(=O)NS(=O)(=O)c4ccc(NCC5CCOCC5)c([N+](=O)[O-])c4)c(Oc4ccc5[nH]ccc5c4)c3)CC2)=C(c2ccc(Cl)cc2)C1 [Compound 3, 4-(4-{[2-(4-chlorophenyl)-4,4-dimethylcyclohex-1-en-1-yl]methyl}piperazin-1-yl)-2-(1H-indol-5-yloxy)-N-({3-nitro-4-[(tetrahydro-2H-pyran-4-ylmethyl)amino]phenyl}sulfonyl)benzamide] | – | 12 | 1060 | 41 | > 5000 | 0.119 | 151 | 111 | 2.3 ×10^6 | 1.34 ×10^6 | 63 | 79 | lymphocyte reduction ([1]; 30 mg/kg intraperitoneal every day, four days): 47%; CD4+ T cells, CD8+ T cells and CD19+ B cells ([1]; 100 mg/kg and 300 mg/kg): statistically significant decrease; lymphocyte reduction ([1]; 100 mg/kg intraperitoneal every day, four days): 66%; lymphocytes vs phosal vehicle control [1, 5]: dose dependent decrease in lymphocytes; platelet counts [1, 5]: without significantly affecting platelet counts
CC1(C)CCC(CN2CCN(c3ccc(C(=O)NS(=O)(=O)c4cnc(OC[C@H]5CC[C@H](O)CC5)c(Cl)c4)c(Oc4cccc5[nH]ncc45)c3)CC2)=C(c2ccc(Cl)cc2)C1 [Compound 6, Trans-N-({5-chloro-6-[(4-hydroxycyclohexyl)methoxy]pyridin-3-yl}sulfonyl)-4-(4-{[2-(4-chlorophenyl)-4,4-dimethylcyclohex-1-en-1-yl]methyl}piperazin-1-yl)-2-(1H-indazol-4-yloxy)benzamide] | – | – | – | 23 | 3660 | < 0.01 | 27 | > 224 | 1.91 ×10^6 | 0.98 ×10^6 | 69 | 85 | –
CC1(C)CCC(CN2CCN(c3ccc(C(=O)NS(=O)(=O)c4ccc(NC[C@H]5CC[C@@](C)(O)CC5)c([N+](=O)[O-])c4)c(Oc4cnc5[nH]ccc5c4)c3)CC2)=C(c2ccc(Cl)cc2)C1 [Compound 8, 4-(4-{[2-(4-chlorophenyl)-4,4-dimethylcyclohex-1-en-1-yl]methyl}piperazin-1-yl)-N-[(4-{[(cis-4-hydroxy-4-methylcyclohexyl)methyl]amino}-3-nitrophenyl)sulfonyl]-2-(1H-pyrrolo[2,3-b]pyridin-5-yloxy)benzamide] | 405 | – | – | 4 | 3340 | – | 16 | > 440 | 0.92 ×10^6 | 1.02 ×10^6 | 85 | 84 | –
CC1(C)CCC(CN2CCN(c3ccc(C(=O)NS(=O)(=O)c4ccc(NC[C@H]5CC[C@](C)(O)CC5)c([N+](=O)[O-])c4)c(Oc4cnc5[nH]ccc5c4)c3)CC2)=C(c2ccc(Cl)cc2)C1 [Compound 9, 4-(4-{[2-(4-chlorophenyl)-4,4-dimethylcyclohex-1-en-1-yl]methyl}piperazin-1-yl)-N-[(4-{[(trans-4-hydroxy-4-methylcyclohexyl)methyl]amino}-3-nitrophenyl)sulfonyl]-2-(1H-pyrrolo[2,3-b]pyridin-5-yloxy)benzamide] | 227 | – | – | 2.5 | 3760 | – | 16 | > 440 | 0.75 ×10^6 | 0.88 ×10^6 | 88 | 86 | –
CC1(C)CCC(CN2CCN(c3ccc(C(=O)NS(=O)(=O)c4cnc(OCC5(F)CCN(C6COC6)CC5)c(Cl)c4)c(Oc4cnc5[nH]ccc5c4)c3)CC2)=C(c2ccc(Cl)cc2)C1 [Compound 13, N-[(5-chloro-6-{[4-fluoro-1-(oxetan-3-yl)piperidin-4-yl]methoxy}pyridin-3-yl)sulfonyl]-4-(4-{[2-(4-chlorophenyl)-4,4-dimethylcyclohex-1-en-1-yl]methyl}piperazin-1-yl)-2-(1H-pyrrolo[2,3-b]pyridin-5-yloxy)benzamide] | 167 | – | – | 7 | 3160 | – | 9 | > 440 | 2.32 ×10^6 | 2.61 ×10^6 | 64 | 70 | –
CC1(C)CCC(CN2CCN(c3ccc(C(=O)NS(=O)(=O)c4ccc(N[C@H]5CC[C@H](N6CCOCC6)CC5)c([N+](=O)[O-])c4)c(Oc4cnc(N)c(Cl)c4)c3)CC2)=C(c2ccc(Cl)cc2)C1 [Compound 17, Trans-2-[(6-amino-5-chloropyridin-3-yl)oxy]-4-(4-{[2-(4-chlorophenyl)-4,4-dimethylcyclohex-1-en-1-yl]methyl}piperazin-1-yl)-N-({4-[(4-morpholin-4-ylcyclohexyl)amino]-3-nitrophenyl}sulfonyl)benzamide] | 357 | 4 | 65 | 17 | 3240 | < 0.01 | 12 | > 440 | 1.84 ×10^6 | 1.30 ×10^6 | 77 | 83 | % Mice with PU < 300 mg/dL ([3]; Week 39, 1 mg/kg daily oral): 58%; % Survival ([3]; Week 39, 1 mg/kg daily oral): 67%; % Mice with PU < 300 mg/dL ([3]; Week 39, 3 mg/kg daily oral): 67%; % Survival ([3]; Week 39, 3 mg/kg daily oral): 92%; % Mice with PU < 300 mg/dL ([3]; Week 39, 10 mg/kg daily oral): 71%; % Survival ([3]; Week 39, 10 mg/kg daily oral): 93%; % Mice with PU < 300 mg/dL ([3]; Week 39, 30 mg/kg daily oral): 86%; % Survival ([3]; Week 39, 30 mg/kg daily oral): 100%; % Mice with PU < 300 mg/dL ([3]; Week 39, 100 mg/kg daily oral): 100* %; % Survival ([3]; Week 39, 100 mg/kg daily oral): 100%
